The values below come from patent US11104665B2, “Pyridazines” (Boehringer Ingelheim International GmbH, priority 2018, dated 2021).

Test [1] relates to LPA levels. The settings on record: as disclosed in ACS Med. Chem. Lett. 2017, 8, 1252-1257; cited from earlier work.
In test [2] the target is Human ATX (Homo sapiens (Human), UniProt Q13822). Briefly: Assay A: Biochemical ATX Assay. The settings on record: recombinant ATX, 18:1 LPC substrate, 18:1 LPA formation; compounds of the invention.
Method: 5 nM recombinant ATX (Cayman Chemicals) was supplemented to 50 mM Tris buffer (pH 8.0) containing 3 mM KCl, 1 mM CaCl2, 1 mM MgCl2 0.14 mM NaCl, and 0.1% bovine serum albumin. Test compounds were dissolved in DMSO and tested in the range of 0.1 nM to 10 μM. The enzymatic reaction (22.5 μL) was started by addition of 2.5 μL 10 μM 18:1 LPC (Avanti Lipids, Alabaster, Ala., USA). After 2-h incubation at room temperature, the reaction was stopped by addition of 20 μL water containing 500 nM 20:4 LPA as internal standard and 100 μL 1-butanol for extracting LPA. Subsequently, the plates were centrifuged at 4000 rpm, 4° C., for 2 min. The resultant upper butanol phase was directly used for injection at a RapidFire system (Agilent).
The RapidFire autosampler was coupled to a binary pump (Agilent 1290) and a Triple Quad 6500 (ABSciex, Toronto, Canada). This system was equipped with a 10-μL loop, 5 μL Waters Atlantis HILIC cartridge (Waters, Elstree, UK), 90% acetonitrile containing 10 mM ammonium acetate as eluent A and 40% acetonitrile containing 10 mM ammoniumacetate as eluent B. For details see (Bretschneider et al., SLAS Discovery, 2017). 1 The MS was operated in negative mode with a source temperature of 550° C., curtain gas=35, gas 1=65, and gas 2=80. The following transitions and MS parameters (DP: declustering potential and CE: collision energy) for the respective LPAs were determined: 18:1 LPA at 435.2/152.8, DP=−40, CE=−28 and 20:4 LPA at 457.2/152.8, DP=−100, CE=−27).
The formation of 18:1 LPA was monitored and evaluated as ratio to 20:4 LPA.
Test [3] deals with ATX in human whole blood (Homo sapiens (Human), UniProt Q13822). Kind of test: Assay B: Whole-Blood ATX Assay. It is filed as biochemical. The settings on record: 1 h at 37° C., 18:2 LPA formation, compounds of the invention.
Method: ATX is a soluble plasma protein, which is active in heparinized whole blood. Its substrate LPC is highly abundant, its concentration being in the μM range. Therefore, a whole blood assay at physiological substrate concentrations is a highly relevant assay, predictive for the efficacy of ATX inhibitors in vivo.
45 μL human whole-blood was supplemented with 5 μL of the test compound, dissolved in phosphate-buffered saline (concentration range 0.12 nM-100 μM). This mixture was incubated for 1 h at 37° C. and stopped by addition of 100 μL 40 mM disodium hydrogen phosphate buffer containing 30 mM citric acid (pH 4) and 1 μM 17:0 LPA (internal standard). LPA was extracted by addition of 500 μL 1-butanol, followed by 10-min centrifugation at 4000 rpm, 4° C. From the resultant organic supernatant, a 200 μL aliquot was transferred into a 96-deep-well plate and transferred to the RapidFire-based MS/MS measurement.
The RapidFire autosampler was coupled to a binary pump (Agilent 1290) and a Triple Quad 6500 (ABSciex, Toronto, Canada). This system was equipped with a 10-μL loop, 5-μL Waters Atlantis HILIC cartridge (Waters, Elstree, UK), 90% acetonitrile containing 10 mM ammonium acetate as eluent A and 40% acetonitrile containing 10 mM ammoniumacetate as eluent B. For details see (Bretschneider et al., SLAS Discovery, 2017, 22, 425-432). The MS was operated in negative mode with a source temperature of 550° C., curtain gas=35, gas 1=65, and gas 2=80. The following transitions and MS parameters (DP: declustering potential and CE: collision energy) for the respective LPAs were determined: 18:2 LPA at 433.2/152.8, DP=−150, CE=−27 and 17:0 LPA at 423.5/152.8, DP=−100.
The formation of 18:2 LPA was monitored and evaluated as ratio to 17:0 LPA.
The subject of test [4] is plasma LPA. Kind of test: Assay C: In Vivo, plasma LPA reduction after oral dosing. Details: species or system rat. The conditions noted are these: rats, 5 mg/kg, 8 hours post application. The method, then: LPA reduction in vivo is determined by measuring the plasma concentration of LPA after oral dosage of the compounds of the present invention. LPA is a very strong bioactive lipid, which efficiently activates downstream pathways via the LPA-receptors 1-6 in a concentration dependent manner. The pronounced and sustained blockage of the LPA formation via ATX inhibition is assessed by measuring the extent of LPA reduction 8 hours after compound dosage. A high reduction of plasma LPA at 8 h is therefore highly indicative for efficacy and sustained duration of action in vivo as well as sustained target engagement of the LPA receptors.
The test substance was solubilized in 0.5% natrosol supplemented with 0.015% Tween 80 for oral application to rats at a dose of 5 mg/kg. Blood samples were collected before compound administration and 8 hours post application on ice using EDTA as coagulation agent. Subsequently, plasma was prepared by centrifugation and stored until analysis at −20° C.
LPAs from plasma samples were extracted by using the procedure described by Scherer et al. (Clinical chemistry 2009, 55, 1218-22). 35 μL of heparinized plasma was mixed with 200 μL 40 mM disodium hydrogen phosphate buffer containing 30 mM citric acid (pH 4) and 1 μM 17:0 LPA (internal standard). Subsequently, 500 μL butanol was added and shaken vigorously for 10 min. Samples were centrifuged afterwards at 4000 rpm, 4° C., for 10 min. […]
A Triple Quad 6500 (ABSciex, Toronto, Canada) was equipped with an Agilent 1290 LC system (Agilent, Santa Clara, Calif.) a CTC autosampler and an Atlantis 50×2.1-mm, 3-μm HILIC LC column (Waters, Elstree, UK). […] The following LPA species were monitored (DP: declustering potential and CE: collision energy): 16:0 LPA at 409.2/152.8, DP=−150, CE=−28; 18:0 LPA at 437.3/152.8, DP=−60, CE=−28; 18:1 LPA at 435.2/152.8, DP=−40, CE=−28; 18:2 LPA at 433.2/152.8, DP=−150, CE=−28; 20:4 LPA at 457.2/152.8, DP=−100, CE=−29 and 17:0 LPA at 423.5/152.8, DP=−100, CE=−36. LPA depletion in percent was calculated based on the baseline LPA levels before test compound application. […]

Setting [5] is: vs baseline, sum of LPA, compounds of the invention.

Take `O=C(NC[C@@H]1[C@H]2CN(C(=O)OCc3cc(C(F)(F)F)cc(C(F)(F)F)c3)C[C@@H]12)c1ccc2[nH]nnc2c1`: the “LPA levels in vivo” value in test [1] is listed as “significantly reduces LPA levels in vivo”.

In the case of `CC(=O)N1CCN(c2ccc(CNc3ccc(OCc4cc(Cl)cc(Cl)c4)nn3)cc2)CC1` [Example 1.1, 1-[4-(4-{[6-(3,5-Dichloro-benzyloxy)-pyridazin-3-ylamino]-methyl}-phenyl)-piperazin-1-yl]-ethanone], the IC50 in test [2] amounted to 6 nM; in test [3], 46 nM.

With `CC(=O)N1CCN(c2ccc(CNc3ccc(OCc4cncc(C#N)c4)nn3)cc2)CC1` [Example 1.2], the IC50 in test [2] is 2 nM; in test [3], 55 nM.

For `CC(=O)N1CCN(c2ccc(CNc3ccc(OCc4ccnc(C#N)c4)nn3)cc2)CC1` [Example 1.3], the IC50 worked out at 5 nM in test [2] and 83 nM in test [3].

Take `CC(=O)N1CCN(c2ccc(CNc3ccc(OCc4cccc(C#N)c4)nn3)cc2)CC1` [Example 1.4]: the “LPA reduction at 8 h” value in test [4] (setting [5]) is reported as 95.7%. Also, the IC50 in test [2] turned out to be 4 nM; in test [3], 201 nM.

Regarding `CC(=O)N1CCN(c2ccc(CNc3ccc(OCc4ccc(OC(F)(F)F)nc4)nn3)cc2)CC1` [Example 1.5], the IC50 is 4 nM in test [2] and 9 nM in test [3].

In the case of `CC(=O)N1CCN(c2ccc(CNc3ccc(OCc4cc(C#N)cc(OC(F)(F)F)c4)nn3)cc2)CC1` [Example 1.6], the IC50 in test [2] came out at 5 nM.

In the case of `CCc1nc2c(C)cc(N3CCN(CC(=O)N4CC(O)C4)CC3)cn2c1N(C)c1nc(-c2ccc(F)cc2)c(C#N)s1` [Example 2 in WO2014/139882, reference compound], the “LPA reduction at 8 h” value in test [4] (prior art compounds of WO2014/139882) is given as 58.1%.

As for `COc1ccc(COc2ccc(NCc3ccc(N4CCN(C(C)=O)CC4)cc3)nn2)cn1` [Example 2.1, 1-[4-(4-{[6-(6-Methoxy-pyridin-3-ylmethoxy)-pyridazin-3-ylamino]-methyl}-phenyl)-piperazin-1-yl]-ethanone], the “LPA reduction at 8 h” value in test [4] (setting [5]) was found to be 98.3%. Moreover, the IC50 in test [2] worked out at 3 nM; in test [3], 33 nM.

For the molecule `COc1ccc(COc2ccc(NCc3ccc(C4CCN(C(C)=O)CC4)cc3)nn2)cn1` [Example 2.2], the concentration for half-maximal inhibition (IC50) in test [2] came to 3 nM; in test [3], 38 nM.

With `COc1cc(COc2ccc(NCc3ccc(N4CCN(C(C)=O)CC4)cc3)nn2)ccn1` [Example 2.3], the IC50 was determined as 8 nM in test [2] and 186 nM in test [3].

Take `CC(=O)N1CCN(c2ccc(CNc3ccc(OCc4ccccc4)nn3)cc2)CC1` [Example 2.4]: the values for the IC50 in test [2] and in test [3] were 3 nM and 73 nM, respectively.

Consider `CC(=O)N1CCC(c2ccc(CNc3ccc(OCc4ccccc4)nn3)cc2)CC1` [Example 2.5], for which the IC50 in test [2] is 4 nM; in test [3] it was 264 nM.

In general, IC50 refers to the concentration needed to halve the response being measured.
